Laboratory results reported in the NIST ThermoML archive (doi:10.1016/j.jct.2018.12.037).

What was measured:
[1] = refractive index (Na D-line) (dimensionless); xn = mol fraction of the nth substance listed; conditions: 293.15 K; 100 kPa; Liquid; Standard Abbe refractometry; x1 = 0.52
[2] = xn = mol fraction of the nth substance listed; conditions: 100 kPa, Liquid, Vibrating tube method, x1 = 0.52

C[C@@H]1CC[C@H](C)O1 [cis-2,5-dimethyltetrahydrofuran] + C[C@@H]1CC[C@@H](C)O1
Conditions	refractive index
[1]	1.4043

[2]
Conditions	mass density [kg/m3]
273.15 K	848.22
283.15 K	838.53
293.15 K	828.71
298.15 K	823.89
303.15 K	818.91
